# Literature values, collected in US20070250301A1, “Normalizing cell assay data for models” (Cytokinetics, Inc., A Delaware Corporation, priority 2006, published 2007).
# Numbered stars: 1 amine (or outer) side, 2 acyl side, 3 side chain; on linkers, the order of the positions; unused ones are H or OH. Bridge positions count the residues as written; N and C are the ends. Square brackets hold non-standard residues; d marks the D form. Peptide text beside a SMILES is read from it. Trp(2-yl) = O=C([C@H](Cc1c([*:3])[nH]c2ccccc12)N[*:1])[*:2]; Leu(4R-OH,5-OH) = C[C@](O)(CO)C[C@H](N)C(=O)O; cisHyp = O=C(O)[C@@H]1C[C@H](O)CN1
# What was measured:
# [1] = system: filamentous F actin around canaliculi and tight junctions
# bile flow = details: rats; resulting in cholestatic injury
Structure (SMILES),effect on filamentous F actin [1],effect on bile flow (bile flow)
"C[C@@H]1NC(=O)[C@H](C[C@@](C)(O)CO)NC(=O)[C@@H]2Cc3c([nH]c4ccccc34)SC[C@H](NC(=O)[C@@H]([C@H](C)O)NC1=O)C(=O)N1C[C@@H](O)C[C@H]1C(=O)N[C@@H](C)C(=O)N2 [phalloidin] (cyclo(A[dT]C[cisHyp]A[Trp(2-yl)][Leu(4R-OH,5-OH)]); thioether 3-6)",increase in filamentous F actin,
C=C1[C@@H](C)[C@H]2[C@H](Cc3ccccc3)NC(=O)[C@]23OC(=O)/C=C/[C@H](O)CCC[C@@H](C)C/C=C/[C@H]3[C@@H]1O [cytochalasin B],,prompt arrest of bile flow
